Test: Multiple ascending-dose study, safety (adverse events)
Type: in vivo
Procedure: Three drug doses (10, 20 and 40 mg) were utilized. A total of 36 healthy subjects of both genders were assigned randomly to the three groups (n = 12), with10 subjects taking HEC113995PA·H2O tablets and 2 taking placebo. The participants in the 10 mg dose group received a single dose daily in the morning after overnight fasting, or a single dose daily after a standard meal in the 20 mg and 40 mg dose groups for 10 consecutive days. Serial blood samples were collected within 0.5 h before drug administration on days 7, 8 and 9, and before and after drug administration on days 1 and 10 to determine plasma concentration and pharmacokinetic characteristics. Safety and tolerability were evaluated on days 4, 8, 13 and 15.
The trial was conducted in a dose-escalation manner, with the administration of the next dose arm only after the tolerability and safety of the previous arm had been fully evaluated. Following the assessments by both the investigator and the sponsor, the next dose level could be reverted to the previous dose group if deemed necessary. In such cases, twelve new healthy subjects (10 taking HEC113995PA·H2O tablets and 2 taking placebo) were enrolled to explore the maximum safe tolerated dose. Throughout the entire trial (including the SAD trial, FE trial and MAD trial), each subject was only allowed to participate in one dose group.
Safety indicators were assessed through adverse events (AE), clinical laboratory tests (including blood routine, blood biochemistry, urine routine), vital signs monitoring (ear temperature), pulse, respiration and blood pressure in a sitting position), 12-lead electrocardiogram (ECG) and physical examinations. Adverse events (AE) and serious adverse events (SAE) were evaluated following the criteria outlined in National Cancer Institute Common Terminology Criteria for Adverse Events (NCI-CTCAE) version 5.0.
Any adverse events that occurred in all subjects during the clinical trial were recorded with the following details: AE name, occurrence time, end time, severity, whether it was classified as a SAE, severity criteria (if applicable), treatment measures and outcomes, actions taken on investigational drug due to the AE, and the causal relationship between the AE and administrated drug, etc. Each AE was recorded separately.
The subjects were under close monitoring at the clinical research center until the sample retention and safety evaluation were completed. During the safety trial, drug intolerance of a given dose was defined as follows: grade 2 or higher drug-related AEs occurred in more than half of the subjects, or grade 3 or higher drug-related AEs occurred in more than one quarter of the subjects. The dose escalation was halted after drug intolerance occurred.

Cc1nc(-c2cnc(N3CCN(CCCc4c[nH]c5ccc(C#N)cc45)CC3)nc2)sc1C(N)=O [HEC113995PA·H2O]
related TEAE: diarrhea (MAD 10 mg): 2 cases
related TEAE: dizziness (MAD 10 mg): 1 case
related TEAE: elevated blood triglycerides (MAD 10 mg): 2 cases
related TEAE: nausea (MAD 10 mg): 1 case
Grade 2 related AE: elevated blood triglycerides (MAD 10 mg group): 1 case
related TEAE: elevated gamma-glutamyl transferase (γ-GT) (MAD 10 mg group): 1 case
related TEAE: oral ulcer (MAD 10 mg group): 2 cases
incidence of subjects experiencing TRAEs (MAD 10 mg group, 7 subjects): 70.0%
incidence of subjects experiencing TEAE (MAD 10 mg group, 8 subjects): 80.0%
related TEAE: diarrhea (MAD 20 mg): 1 case
related TEAE: dizziness (MAD 20 mg): 1 case
related TEAE: nausea (MAD 20 mg): 3 cases
incidence of subjects experiencing TRAEs (MAD 20 mg group, 6 subjects): 66.7%
incidence of subjects experiencing TEAE (MAD 20 mg group, 8 subjects): 88.9%
related TEAE: dizziness (MAD 40 mg): 4 cases
related TEAE: elevated blood triglycerides (MAD 40 mg): 3 cases
related TEAE: nausea (MAD 40 mg): 1 case
Grade 2 related AE: elevated blood cholesterol (MAD 40 mg group): 1 case
Grade 2 related AE: elevated blood triglycerides (MAD 40 mg group): 1 case
related TEAE: elevated gamma-glutamyl transferase (γ-GT) (MAD 40 mg group): 1 case
incidence of subjects experiencing TRAEs (MAD 40 mg group, 6 subjects): 60.0%
incidence of subjects experiencing TEAE (MAD 40 mg group, 8 subjects): 80.0%
Grade 3 or higher TEAEs related to the investigational product (MAD trial): no Grade 3 or higher TEAEs
related TEAE incidence: elevated gamma-glutamyl transferase (γ-GT) (MAD, 2/29): 6.9%
related TEAE incidence: oral ulcer (MAD, 2/29): 6.9%
related TEAE incidence: hyperuricemia (MAD, 2/29, both cases in the 40 mg group): 6.9%
related TEAE incidence: diarrhea (MAD, 3/29): 10.3%
related TEAE incidence: dry mouth (MAD, 3/29, all cases in the 10 mg group): 10.3%
related TEAE incidence: headache (MAD, 3/29, exclusively observed in the 20 mg group): 10.3%
related TEAE incidence: terminal insomnia (MAD, 3/29, limited to the 20 mg group): 10.3%
related TEAE incidence: elevated blood triglycerides (MAD, 5/29): 17.2%
related TEAE incidence: nausea (MAD, 5/29): 17.2%
related TEAE incidence: dizziness (MAD, 6/29): 20.7%
incidence of Grade 2 AEs related to the investigational product (MAD, HEC113995PA·H2O group, 3 cases): 10.3%
incidence of subjects experiencing TRAEs (MAD, HEC113995PA·H2O trial group, 19 subjects, 48 TRAEs): 65.5%
incidence of subjects experiencing TEAE (MAD, HEC113995PA·H2O trial group, 24 subjects, 85 incidents): 82.8%
tolerability (healthy Chinese subjects, multiple doses range 10–40 mg daily): well tolerated

— PMC11979273, “A phase I study to evaluate the safety, tolerability, and pharmacokinetics of HEC113995PA·H2O, a novel dual-acting serotonergic antidepressant, in healthy subjects” (Frontiers in Pharmacology, 2025)
